The results in this text go back to patent US11767310B2, “Nicotinamide RIPK1 inhibitors” (AbbVie Inc., priority 2021, dated 2023).

Like-named read-outs stand apart in the source and are kept apart here.

Common to all, as to assay: Kinase binding screen
Settings in all cases: read-out: Percent Control at 100 nM Compound Concentration

Test [1] concerns the target EIF2AK1 (Homo sapiens (Human), UniProt Q9BQI3).
Test [2] concerns the target ARK5 (Homo sapiens (Human), UniProt O60285).
Test [3] deals with LRRK2 (Homo sapiens (Human), UniProt Q5S007).
The target of test [4] is ULK1 (Homo sapiens (Human), UniProt O75385).
Test [5] addresses PFPK5(P.falciparum) (Plasmodium falciparum (isolate 3D7), UniProt P61075). From the text:
(§1) The screening method uses an immobilized ligand on a solid support, a DNA-tagged kinase, and a test compound. Test compounds that bind the kinase active site and directly (sterically) or indirectly (allosterically) prevent kinase binding to an immobilized ligand on a solid support will reduce the amount of kinase captured on the solid support. […] Screening “hits” are identified by measuring the amount of kinase captured in test compound versus control samples by using a quantitative, precise and ultra-sensitive qPCR method that detects the DNA label associated with the kinase. In a similar manner, dissociation constants (Kd) for test compound-kinase interactions are calculated by measuring the amount of kinase captured on the solid support as a function of the test compound concentration.
(§2) For most assays, kinase-tagged T7 phage strains were grown in parallel in 24-well blocks in an E. coli host derived from the BL21 strain. E. coli were grown to log-phase and infected with T7 phage from a frozen stock (multiplicity of infection=0.4) and incubated with shaking at 32° C. until lysis (90-150 minutes). The lysates were centrifuged (6,000×g) and filtered ([…]) to remove cell debris. The remaining kinases were produced in HEK-293 cells and subsequently tagged with DNA for qPCR detection. Streptavidin-coated magnetic beads were treated with biotinylated small molecule ligands for 30 minutes at room temperature to generate affinity resins for kinase assays. The liganded beads were blocked with excess biotin and washed with blocking buffer (SeaBlock (Pierce), 1% BSA, 0.05% Tween 20, 1 mM DTT) to remove unbound ligand and to reduce non-specific phage binding. […] Test compounds were prepared as 40× stocks in 100% DMSO and directly diluted into the assay. All reactions were performed in polypropylene 384-well plates in a final volume of 0.02 mL. […] The kinase concentration in the eluates was measured by qPCR.
(§3) The compounds were screened at 100 nM concentration, and results for the binding interactions are shown below in Table D as percent control, where lower numbers indicate stronger hits. The calculation for percent control is shown below. The negative control was DMSO (100% control), and a control compound was used as positive control (0% control).

The target of test [6] is PFCDPK1(P.falciparum) (Plasmodium falciparum (isolate 3D7), UniProt P62344).
Text: as §1, §2, §3

In test [7] the target is CDC2L5 (Homo sapiens (Human), UniProt Q14004).
Text: as §1, §2, §3

Test [8] concerns the target PRP4 (Homo sapiens (Human), UniProt Q13523).
Text: as §1, §2, §3

For test [9], the target named is HPK1 (Homo sapiens (Human), UniProt Q92918).
In test [10] the target is PIK4CB (Homo sapiens (Human), UniProt Q9UBF8).
Test [11] deals with VRK2 (Homo sapiens (Human), UniProt Q86Y07).
For test [12], the target named is ERK4 (Homo sapiens (Human), UniProt P31152).
In test [13] the target is RIOK2 (Homo sapiens (Human), UniProt Q9BVS4).
Test [14] addresses CLK1 (Homo sapiens (Human), UniProt P49759).
Test [15] addresses ERK1 (Homo sapiens (Human), UniProt P27361).
Test [16] addresses CDK5 (Homo sapiens (Human), UniProt Q00535).
Test [17] addresses GCN2(Kin.Dom.2,S808G) (Homo sapiens (Human), UniProt Q9P2K8, S808G).
In test [18] the target is PIK3CA(H1047L) (Homo sapiens (Human), UniProt P42336, H1047L).
The target in test [19] is EGFR(L747-S752del, P753S) (Homo sapiens (Human), UniProt P00533, DEL747-752/P753S).
For test [20], the target named is DYRK1A (Homo sapiens (Human), UniProt Q13627).
For test [21], the target named is p38-beta (Homo sapiens (Human), UniProt Q15759).
p38-beta, sequence (Q15759 whole entry): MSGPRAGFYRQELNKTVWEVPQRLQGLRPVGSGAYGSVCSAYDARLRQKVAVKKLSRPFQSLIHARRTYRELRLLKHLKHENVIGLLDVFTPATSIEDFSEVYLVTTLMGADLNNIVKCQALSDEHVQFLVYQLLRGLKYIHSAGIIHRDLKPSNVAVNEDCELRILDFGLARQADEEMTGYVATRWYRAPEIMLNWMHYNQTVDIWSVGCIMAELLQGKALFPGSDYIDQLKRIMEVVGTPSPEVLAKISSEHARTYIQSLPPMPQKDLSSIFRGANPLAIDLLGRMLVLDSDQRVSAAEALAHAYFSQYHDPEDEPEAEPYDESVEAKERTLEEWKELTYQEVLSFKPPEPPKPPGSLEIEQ

EIF2AK1, sequence (Q9BQI3 whole entry): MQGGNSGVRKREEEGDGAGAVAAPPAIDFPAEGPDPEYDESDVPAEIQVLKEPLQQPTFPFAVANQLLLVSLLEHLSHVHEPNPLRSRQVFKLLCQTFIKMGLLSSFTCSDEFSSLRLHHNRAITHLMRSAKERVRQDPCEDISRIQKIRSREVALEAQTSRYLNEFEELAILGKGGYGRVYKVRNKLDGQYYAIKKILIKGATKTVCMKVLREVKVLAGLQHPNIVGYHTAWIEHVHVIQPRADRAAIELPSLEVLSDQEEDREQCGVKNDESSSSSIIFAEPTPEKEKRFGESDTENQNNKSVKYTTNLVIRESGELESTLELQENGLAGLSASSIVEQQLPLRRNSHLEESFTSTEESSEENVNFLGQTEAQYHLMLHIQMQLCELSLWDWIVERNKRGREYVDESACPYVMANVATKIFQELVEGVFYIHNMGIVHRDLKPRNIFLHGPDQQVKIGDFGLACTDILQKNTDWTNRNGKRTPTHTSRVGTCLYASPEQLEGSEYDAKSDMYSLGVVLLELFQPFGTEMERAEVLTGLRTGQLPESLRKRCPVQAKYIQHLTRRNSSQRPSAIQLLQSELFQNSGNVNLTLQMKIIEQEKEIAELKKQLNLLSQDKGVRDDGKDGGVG
CDC2L5, sequence (Q14004 whole entry, looked up): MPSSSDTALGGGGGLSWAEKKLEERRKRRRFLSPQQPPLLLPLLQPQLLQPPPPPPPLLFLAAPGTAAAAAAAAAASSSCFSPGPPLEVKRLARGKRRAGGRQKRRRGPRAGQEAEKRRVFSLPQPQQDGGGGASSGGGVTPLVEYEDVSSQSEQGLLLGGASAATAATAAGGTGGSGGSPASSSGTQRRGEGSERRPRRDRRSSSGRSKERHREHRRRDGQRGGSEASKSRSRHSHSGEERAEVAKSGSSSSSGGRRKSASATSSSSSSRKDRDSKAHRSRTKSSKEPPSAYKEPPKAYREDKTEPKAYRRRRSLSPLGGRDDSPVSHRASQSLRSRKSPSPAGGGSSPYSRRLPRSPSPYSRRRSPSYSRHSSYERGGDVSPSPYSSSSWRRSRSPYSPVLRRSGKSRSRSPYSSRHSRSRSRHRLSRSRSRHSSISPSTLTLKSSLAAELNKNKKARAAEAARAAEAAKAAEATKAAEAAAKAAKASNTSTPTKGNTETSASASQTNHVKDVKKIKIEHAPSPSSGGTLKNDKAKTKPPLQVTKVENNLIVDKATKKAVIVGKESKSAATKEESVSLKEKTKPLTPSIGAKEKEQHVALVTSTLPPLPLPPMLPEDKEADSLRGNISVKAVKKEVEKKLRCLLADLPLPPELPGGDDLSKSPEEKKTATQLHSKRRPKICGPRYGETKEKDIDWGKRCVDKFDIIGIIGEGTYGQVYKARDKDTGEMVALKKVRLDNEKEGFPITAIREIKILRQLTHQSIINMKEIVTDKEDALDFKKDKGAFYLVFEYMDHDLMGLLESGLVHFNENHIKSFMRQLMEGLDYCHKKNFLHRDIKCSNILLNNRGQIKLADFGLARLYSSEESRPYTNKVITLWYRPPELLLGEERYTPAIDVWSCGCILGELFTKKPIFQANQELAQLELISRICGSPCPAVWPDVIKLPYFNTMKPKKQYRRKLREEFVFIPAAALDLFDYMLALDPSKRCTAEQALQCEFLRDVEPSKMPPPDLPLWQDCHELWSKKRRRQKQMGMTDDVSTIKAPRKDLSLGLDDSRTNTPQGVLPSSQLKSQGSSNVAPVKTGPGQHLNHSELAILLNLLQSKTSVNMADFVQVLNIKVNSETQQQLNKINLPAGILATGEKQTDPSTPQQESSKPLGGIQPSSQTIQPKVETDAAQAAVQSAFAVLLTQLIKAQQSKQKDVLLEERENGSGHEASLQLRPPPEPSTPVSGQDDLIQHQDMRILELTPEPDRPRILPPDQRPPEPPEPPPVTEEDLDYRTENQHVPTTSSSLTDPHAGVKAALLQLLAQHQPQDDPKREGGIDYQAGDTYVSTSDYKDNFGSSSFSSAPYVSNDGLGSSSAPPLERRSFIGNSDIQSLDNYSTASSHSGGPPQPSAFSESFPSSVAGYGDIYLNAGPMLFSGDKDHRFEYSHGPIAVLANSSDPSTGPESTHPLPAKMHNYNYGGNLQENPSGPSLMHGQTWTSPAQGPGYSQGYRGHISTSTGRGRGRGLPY
PIK3CA(H1047L), sequence (P42336 whole entry H1047L): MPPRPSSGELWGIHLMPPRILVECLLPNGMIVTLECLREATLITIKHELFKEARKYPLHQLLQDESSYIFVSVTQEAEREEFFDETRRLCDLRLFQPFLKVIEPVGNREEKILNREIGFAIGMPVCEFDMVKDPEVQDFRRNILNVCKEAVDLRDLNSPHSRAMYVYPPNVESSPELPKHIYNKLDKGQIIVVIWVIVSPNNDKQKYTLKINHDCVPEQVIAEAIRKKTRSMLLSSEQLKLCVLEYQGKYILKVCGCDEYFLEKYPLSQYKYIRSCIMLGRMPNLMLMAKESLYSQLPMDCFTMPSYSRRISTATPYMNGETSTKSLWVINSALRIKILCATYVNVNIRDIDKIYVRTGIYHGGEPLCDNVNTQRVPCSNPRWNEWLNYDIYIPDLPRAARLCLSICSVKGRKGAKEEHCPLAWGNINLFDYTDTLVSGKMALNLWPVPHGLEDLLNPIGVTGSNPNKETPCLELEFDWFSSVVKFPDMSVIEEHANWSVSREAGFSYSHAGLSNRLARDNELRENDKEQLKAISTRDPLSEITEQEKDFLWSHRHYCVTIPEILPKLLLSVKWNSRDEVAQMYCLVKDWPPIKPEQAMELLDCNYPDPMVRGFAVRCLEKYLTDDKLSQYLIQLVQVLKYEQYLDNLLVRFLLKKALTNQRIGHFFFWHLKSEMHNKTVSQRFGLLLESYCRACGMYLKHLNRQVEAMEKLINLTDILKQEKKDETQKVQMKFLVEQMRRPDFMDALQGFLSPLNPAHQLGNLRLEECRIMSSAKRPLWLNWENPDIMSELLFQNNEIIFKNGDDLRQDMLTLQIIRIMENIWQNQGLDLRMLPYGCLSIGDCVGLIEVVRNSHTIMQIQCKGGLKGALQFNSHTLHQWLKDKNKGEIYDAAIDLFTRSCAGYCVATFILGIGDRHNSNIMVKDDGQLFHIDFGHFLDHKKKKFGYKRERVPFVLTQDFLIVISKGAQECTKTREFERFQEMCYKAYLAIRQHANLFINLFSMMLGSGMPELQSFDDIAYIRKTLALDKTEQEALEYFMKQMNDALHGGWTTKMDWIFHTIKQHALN
GCN2(Kin.Dom.2,S808G), sequence (Q9P2K8 590-1001 S808G): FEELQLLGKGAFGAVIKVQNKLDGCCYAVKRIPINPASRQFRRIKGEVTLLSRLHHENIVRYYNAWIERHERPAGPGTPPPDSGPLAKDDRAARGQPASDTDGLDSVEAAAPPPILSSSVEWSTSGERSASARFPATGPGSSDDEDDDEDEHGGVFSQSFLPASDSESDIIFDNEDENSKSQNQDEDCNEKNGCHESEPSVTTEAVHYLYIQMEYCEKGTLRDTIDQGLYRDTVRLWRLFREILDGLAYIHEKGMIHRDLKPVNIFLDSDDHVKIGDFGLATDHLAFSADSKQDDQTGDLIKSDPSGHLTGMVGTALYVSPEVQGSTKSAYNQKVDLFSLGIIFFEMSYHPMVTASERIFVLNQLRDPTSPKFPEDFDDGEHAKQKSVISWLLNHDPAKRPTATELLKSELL
VRK2, sequence (Q86Y07 whole entry): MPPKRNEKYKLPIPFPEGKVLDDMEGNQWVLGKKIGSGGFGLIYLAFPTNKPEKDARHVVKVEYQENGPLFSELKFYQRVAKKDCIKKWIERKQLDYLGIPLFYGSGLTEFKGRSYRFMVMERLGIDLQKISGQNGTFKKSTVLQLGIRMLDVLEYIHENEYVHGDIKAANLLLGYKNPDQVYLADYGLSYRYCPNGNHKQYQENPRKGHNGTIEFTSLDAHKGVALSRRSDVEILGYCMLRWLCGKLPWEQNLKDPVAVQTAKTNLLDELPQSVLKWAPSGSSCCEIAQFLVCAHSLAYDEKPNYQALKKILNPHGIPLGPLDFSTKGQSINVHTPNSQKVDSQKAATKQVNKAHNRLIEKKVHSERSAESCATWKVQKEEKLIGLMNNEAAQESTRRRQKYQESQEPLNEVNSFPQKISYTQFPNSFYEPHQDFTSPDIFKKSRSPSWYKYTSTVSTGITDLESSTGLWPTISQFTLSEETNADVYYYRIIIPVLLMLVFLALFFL
CLK1, sequence (P49759 whole entry): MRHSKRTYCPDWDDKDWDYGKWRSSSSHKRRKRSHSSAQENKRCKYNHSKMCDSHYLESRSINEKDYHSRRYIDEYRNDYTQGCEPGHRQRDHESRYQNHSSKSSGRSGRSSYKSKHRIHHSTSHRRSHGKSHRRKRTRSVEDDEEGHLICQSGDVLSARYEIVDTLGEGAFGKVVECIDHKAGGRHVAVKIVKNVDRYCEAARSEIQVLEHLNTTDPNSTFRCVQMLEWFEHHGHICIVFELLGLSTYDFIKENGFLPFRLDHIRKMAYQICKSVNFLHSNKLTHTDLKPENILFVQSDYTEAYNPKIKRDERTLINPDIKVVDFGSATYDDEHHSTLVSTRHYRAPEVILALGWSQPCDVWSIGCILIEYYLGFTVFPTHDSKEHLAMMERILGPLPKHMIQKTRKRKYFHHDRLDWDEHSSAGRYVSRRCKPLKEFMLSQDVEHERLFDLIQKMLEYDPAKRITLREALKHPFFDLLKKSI

For `CN(C[C@@H](O)Cc1ccccc1)C(=O)c1cncc(C#Cc2cnn(C(F)F)c2)c1` [Example 2, (S)-5-((1-(difluoromethyl)-1H-pyrazol-4-yl)ethynyl)-N-(2-hydroxy-3-phenylpropyl)-N-methylnicotinamide], the remaining activity at 0.1 µM in test [1] (EIF2AK1) is 100%; in test [2] (ARK5), 100%; in test [3] (LRRK2), 100%; in test [4] (ULK1), 100%; in test [5] it was 90%; in [6] it was 95%. The remaining activity at 0.1 µM is 100% in [7]; 89% in [8]; 78% in test [9] (HPK1); 100% in [10] (PIK4CB); 91% in test [11] (VRK2); 100% in test [12] (ERK4). Also, the remaining activity at 0.1 µM in test [13] (RIOK2) stood at 95%; in test [14] (CLK1) it was 100%; in test [15] (ERK1) it was 97%; in [16] (CDK5), 100%; in [17] (GCN2(Kin.Dom.2,S808G)), 95%; in test [18] (PIK3CA(H1047L)), 85%. The remaining activity at 0.1 µM in [19] (EGFR(L747-S752del, P753S)) stood at 100%; in test [20] (DYRK1A) it was 90%; in test [21] (p38-beta), 100%.
`CN(C[C@H](Cc1ccccc1)OP(=O)(O)O)C(=O)c1cncc(C#Cc2cnn(C(F)F)c2)c1` [Example 19, (S)-1-(5-((1-(difluoromethyl)-1H-pyrazol-4-yl)ethynyl)-N-methylnicotinamido)-3-phenylpropan-2-yl dihydrogen phosphate]: the remaining activity at 0.1 µM is 96% in [1]; 100% in test [2]; 81% in test [3]; 100% in test [4]; 100% in [5]; 96% in test [6]. The remaining activity at 0.1 µM amounted to 100% in test [7]; 82% in test [8]; 92% in test [9]; 98% in test [10]; 95% in test [11]; 100% in test [12]. Moreover, the remaining activity at 0.1 µM is 95% in test [13]; 100% in [14]; 95% in test [15]; 100% in [16]; 97% in [17]; 71% in test [18]. Also, the remaining activity at 0.1 µM in test [19] was 97%; in test [20] it was 85%; in test [21] it was 97%.
